ChEMBL document CHEMBL1201862, “PubChem BioAssay data set” (2004)
Active and inactive are the calls of the source.

Molecular target: T1, Fatty acid synthase (Homo sapiens, UniProt P49327)
T1 sequence (P49327 whole entry, the tested form may be a part): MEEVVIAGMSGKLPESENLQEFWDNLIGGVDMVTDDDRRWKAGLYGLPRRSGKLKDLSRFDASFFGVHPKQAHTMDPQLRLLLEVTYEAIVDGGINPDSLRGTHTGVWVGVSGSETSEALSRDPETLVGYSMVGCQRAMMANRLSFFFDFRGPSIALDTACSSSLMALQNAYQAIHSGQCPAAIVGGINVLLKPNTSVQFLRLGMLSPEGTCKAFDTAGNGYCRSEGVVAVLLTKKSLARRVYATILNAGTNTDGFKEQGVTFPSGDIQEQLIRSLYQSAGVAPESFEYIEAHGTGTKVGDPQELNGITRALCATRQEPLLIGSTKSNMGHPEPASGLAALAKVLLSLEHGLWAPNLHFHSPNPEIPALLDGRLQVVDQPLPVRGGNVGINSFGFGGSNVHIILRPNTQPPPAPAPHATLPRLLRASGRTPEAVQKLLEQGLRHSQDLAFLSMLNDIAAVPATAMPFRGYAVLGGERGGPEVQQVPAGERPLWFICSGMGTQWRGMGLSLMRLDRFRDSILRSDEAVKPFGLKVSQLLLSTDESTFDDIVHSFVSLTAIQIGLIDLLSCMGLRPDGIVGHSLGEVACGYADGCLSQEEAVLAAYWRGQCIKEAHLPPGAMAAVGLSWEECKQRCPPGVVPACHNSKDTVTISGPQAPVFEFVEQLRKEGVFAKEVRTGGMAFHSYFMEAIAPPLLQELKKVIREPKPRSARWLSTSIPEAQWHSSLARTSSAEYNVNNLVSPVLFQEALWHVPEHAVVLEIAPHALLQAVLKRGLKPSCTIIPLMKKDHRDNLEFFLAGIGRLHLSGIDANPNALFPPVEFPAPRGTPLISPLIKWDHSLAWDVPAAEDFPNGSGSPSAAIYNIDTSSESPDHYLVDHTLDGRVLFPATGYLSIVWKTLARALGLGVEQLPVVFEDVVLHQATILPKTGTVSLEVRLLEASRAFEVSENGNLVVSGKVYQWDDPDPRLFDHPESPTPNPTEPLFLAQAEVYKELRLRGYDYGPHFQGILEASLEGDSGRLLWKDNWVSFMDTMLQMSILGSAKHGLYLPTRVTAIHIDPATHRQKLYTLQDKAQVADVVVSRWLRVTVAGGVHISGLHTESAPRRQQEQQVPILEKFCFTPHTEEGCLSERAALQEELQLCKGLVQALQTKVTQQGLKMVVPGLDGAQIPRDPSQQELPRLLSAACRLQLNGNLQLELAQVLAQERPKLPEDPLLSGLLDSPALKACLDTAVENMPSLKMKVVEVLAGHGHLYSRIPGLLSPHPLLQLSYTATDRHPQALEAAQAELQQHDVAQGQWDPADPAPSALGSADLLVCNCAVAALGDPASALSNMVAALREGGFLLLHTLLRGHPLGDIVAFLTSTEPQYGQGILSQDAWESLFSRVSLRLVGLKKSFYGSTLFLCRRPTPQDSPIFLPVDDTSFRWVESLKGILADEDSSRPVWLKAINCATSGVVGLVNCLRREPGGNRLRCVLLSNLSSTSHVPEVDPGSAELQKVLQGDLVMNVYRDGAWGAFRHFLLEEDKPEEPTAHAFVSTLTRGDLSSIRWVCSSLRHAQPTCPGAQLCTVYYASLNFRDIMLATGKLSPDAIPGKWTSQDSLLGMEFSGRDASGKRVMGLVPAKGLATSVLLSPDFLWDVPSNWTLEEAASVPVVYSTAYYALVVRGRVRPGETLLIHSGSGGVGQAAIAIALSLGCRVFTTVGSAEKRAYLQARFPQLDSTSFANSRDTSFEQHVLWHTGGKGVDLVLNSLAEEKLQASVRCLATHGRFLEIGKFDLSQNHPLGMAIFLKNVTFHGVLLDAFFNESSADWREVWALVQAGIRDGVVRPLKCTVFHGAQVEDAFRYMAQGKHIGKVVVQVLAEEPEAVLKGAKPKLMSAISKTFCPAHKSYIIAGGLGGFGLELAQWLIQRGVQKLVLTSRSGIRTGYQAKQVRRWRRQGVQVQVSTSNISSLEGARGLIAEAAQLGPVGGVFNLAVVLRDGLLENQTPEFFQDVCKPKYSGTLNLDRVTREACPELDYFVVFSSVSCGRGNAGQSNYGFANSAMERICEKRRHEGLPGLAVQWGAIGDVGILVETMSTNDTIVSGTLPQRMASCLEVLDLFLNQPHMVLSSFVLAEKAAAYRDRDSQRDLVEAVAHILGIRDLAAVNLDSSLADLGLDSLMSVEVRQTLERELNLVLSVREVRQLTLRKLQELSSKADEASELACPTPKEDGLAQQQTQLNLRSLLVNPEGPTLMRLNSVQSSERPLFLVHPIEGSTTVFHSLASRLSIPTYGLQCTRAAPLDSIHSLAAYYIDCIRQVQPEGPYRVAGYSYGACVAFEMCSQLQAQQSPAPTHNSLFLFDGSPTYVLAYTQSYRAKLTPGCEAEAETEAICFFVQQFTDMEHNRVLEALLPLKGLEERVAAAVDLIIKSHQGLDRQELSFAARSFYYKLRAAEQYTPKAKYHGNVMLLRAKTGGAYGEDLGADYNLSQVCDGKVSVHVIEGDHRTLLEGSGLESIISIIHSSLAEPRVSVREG
Experiment: FAS thioesterase domain inhibitors, dose response, biochemical, kinetic fluorescence intensity (AID 624326);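 note: rate of fluorescence rise from hydrolysis of a fluorogenic O-methyl fluorescein ester substrate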
Assay type: functional
Conditions: not given
With `CC(C)c1ccc2c(c1)c(SC(C)(C)C)c(CC(C)(C)C(=O)O)n2Cc1ccc(Cl)cc1` the IC50 was 8.48 µM (active). For `CCn1c(C)c(C(C)=O)c(N2CCN(C(c3ccccc3)c3ccccc3)CC2)nc1=S`, the IC50 was 23.1 µM (inactive). With `COc1ccc(C2=NN(C(=O)CSc3nc(=O)n4cc(C)ccc4n3)C(c3ccc(C)cc3)C2)cc1` (centres undefined) the IC50 was 12.9 µM (active). For `Cc1cccc(COCC(CC(C)C)N2CCN(C(=O)c3ccc(C(C)(C)C)cc3)CCC2=O)c1` (centres undefined), the IC50 was 6.11 µM (active). With `O=C(Nc1ccccc1[N+](=O)[O-])OCC=Cc1ccccc1` the IC50 was 6.3 µM (active). With `O=C1Nc2cc(Cl)c(Cl)cc2N(O)N1c1ccc(Cl)c(Cl)c1` the IC50 was 12 µM (active). For `O=C(O)CC(NC(=O)CC(c1ccccc1)c1ccccc1)c1cccc([N+](=O)[O-])c1` (centres undefined), the IC50 was 9.88 µM (active). For `NP(=O)(Oc1ccccc1Cl)Oc1ccccc1Cl`, the IC50 was 8.31 µM (active).

System: not listed separately
Experiment: HepG2 cell cytotoxicity, dose response, cytotoxicity control for Shn3 inhibitor project, CellTiter-Glo, cherry-picked (AID 624134)
Assay type: functional, cell-based
Conditions: not given
With `c1ccc(CN=C(NCc2ccccc2)NCc2ccccc2)cc1` the AC50 was 21.9 µM (active). With `CC(C)C[C@@H](CO)N(Cc1ccccc1)S(=O)(=O)N(Cc1ccccc1)[C@@H](CO)CC(C)C` the AC50 was 21.9 µM (active). For `Cc1cc(C(=O)CSc2nc(N)cc(O)n2)c(C)n1-c1cccc(F)c1`, the AC50 was > 70 µM (inactive). For `CC(C)c1ccc(NC(=O)Nc2nc(C(N)CCc3ccccc3)cs2)cc1` (centres undefined), the AC50 was 10.6 µM (active).

Molecular target: Genome polyprotein (dengue virus type 2, UniProt P29990)
Sequence (P29990 2492-3391 limits assumed): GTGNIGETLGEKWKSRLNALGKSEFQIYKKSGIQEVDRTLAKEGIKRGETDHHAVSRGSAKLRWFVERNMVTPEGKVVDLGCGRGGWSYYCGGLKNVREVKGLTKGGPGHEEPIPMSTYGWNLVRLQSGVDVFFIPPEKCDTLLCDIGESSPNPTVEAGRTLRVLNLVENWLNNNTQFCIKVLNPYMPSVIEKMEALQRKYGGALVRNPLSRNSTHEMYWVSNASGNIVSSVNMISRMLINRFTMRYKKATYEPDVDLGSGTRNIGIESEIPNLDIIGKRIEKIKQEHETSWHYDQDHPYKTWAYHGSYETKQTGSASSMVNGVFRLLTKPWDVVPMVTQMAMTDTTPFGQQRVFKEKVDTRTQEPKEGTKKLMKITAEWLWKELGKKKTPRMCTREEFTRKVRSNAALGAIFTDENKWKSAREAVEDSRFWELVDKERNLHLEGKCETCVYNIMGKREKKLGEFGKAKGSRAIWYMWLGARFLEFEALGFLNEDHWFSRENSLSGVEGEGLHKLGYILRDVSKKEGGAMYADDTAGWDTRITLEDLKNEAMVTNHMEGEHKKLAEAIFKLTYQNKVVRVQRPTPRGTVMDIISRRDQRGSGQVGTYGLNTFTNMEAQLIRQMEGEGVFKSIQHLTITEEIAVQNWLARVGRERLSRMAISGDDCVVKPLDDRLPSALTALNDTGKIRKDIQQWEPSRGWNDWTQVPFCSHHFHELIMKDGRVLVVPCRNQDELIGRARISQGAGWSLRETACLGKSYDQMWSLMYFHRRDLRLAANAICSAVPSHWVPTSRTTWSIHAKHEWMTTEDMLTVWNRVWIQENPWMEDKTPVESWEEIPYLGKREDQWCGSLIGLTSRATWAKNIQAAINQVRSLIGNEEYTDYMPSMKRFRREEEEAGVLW
Experiment: Dengue-2 NS5 methyltransferase inhibitors, primary screen, biochemical, confirmation dose response (AID 588689)
Assay type: functional
Conditions: not given
In the case of `Cc1cc(O)c2c(c1)C(=O)[C@@]13Oc4c5c(c(O)c6c(O)cc(C)cc46)C(=O)C[C@H](O)[C@H]5[C@@H]1[C@@H](O)CC(=O)C3=C2O`, the IC50 is reported as 16.7 µM (active). In the case of `C#CCOc1ccccc1/C=C1/C(=O)ON=C1C`, the IC50 is reported as > 100 µM (active).

Molecular target: T1, Fatty acid synthase
Experiment: FAS thioesterase domain inhibitors, dose response, biochemical, endpoint fluorescence intensity, uHTS hits (AID 624327);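 note: fluorescence from hydrolysis of an O-methyl fluorescein acyl ester substrate by the enzyme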
Assay type: functional
Conditions: not given
With `CC(C)c1ccc2c(c1)c(SC(C)(C)C)c(CC(C)(C)C(=O)O)n2Cc1ccc(Cl)cc1` the IC50 was 10.1 µM (active). In the case of `CCn1c(C)c(C(C)=O)c(N2CCN(C(c3ccccc3)c3ccccc3)CC2)nc1=S`, the IC50 is reported as 8.43 µM (active). With `COc1ccc(C2=NN(C(=O)CSc3nc(=O)n4cc(C)ccc4n3)C(c3ccc(C)cc3)C2)cc1` (centres undefined) the IC50 was 19.2 µM (active). With `Cc1cccc(COCC(CC(C)C)N2CCN(C(=O)c3ccc(C(C)(C)C)cc3)CCC2=O)c1` (centres undefined) the IC50 was 8.21 µM (active). For `O=C(Nc1ccccc1[N+](=O)[O-])OCC=Cc1ccccc1`, the IC50 was 8.17 µM (active). In the case of `O=C1Nc2cc(Cl)c(Cl)cc2N(O)N1c1ccc(Cl)c(Cl)c1`, the IC50 is reported as 6.59 µM (active). With `O=C(O)CC(NC(=O)CC(c1ccccc1)c1ccccc1)c1cccc([N+](=O)[O-])c1` (centres undefined) the IC50 was 7.88 µM (active). For `NP(=O)(Oc1ccccc1Cl)Oc1ccccc1Cl`, the IC50 was 5.09 µM (active).

System: not listed separately
Experiment: P. falciparum Dd2 growth inhibitors, dose response, SYBR Green, cherry-picked samples (AID 1159567)
Assay type: functional, cell-based
Conditions: not given
For `CO[C@@H]1CN(C)C(=O)c2ccc(NC(=O)C3CC3)cc2OC[C@@H](C)N(Cc2ccccc2)C[C@H]1C`, the AC50 was 3.33 µM (active). In the case of `COCC(=O)N1CCC2(CC1)CN(Cc1cccc(OC)c1)[C@@H](CO)c1[nH]c3cc(OC)ccc3c12`, the AC50 is reported as 7.42 µM (active). For `COc1cccc(NC(=O)N2[C@@H](CO)[C@@H](c3ccccc3)[C@@H]2CNC(C)C)c1`, the AC50 was 5.06 µM (active). In the case of `COc1cccc(-c2ccc3c(c2)[C@@H]2[C@@H](CCN2C(=O)C2CCCC2)[C@H](CO)N3)c1`, the AC50 is reported as 4.88 µM (active).

System: not listed separately
Experiment: control 3'UTR Renilla luciferase suppression, dose response, counter-screen for Shn3 inhibitor project, cell-based, Clone20-Shn3RL, cherry-picked (AID 624133)
Assay type: functional
Conditions: not given
For `c1ccc(CN=C(NCc2ccccc2)NCc2ccccc2)cc1`, the AC50 was 2.06 µM (active). In the case of `CC(C)C[C@@H](CO)N(Cc1ccccc1)S(=O)(=O)N(Cc1ccccc1)[C@@H](CO)CC(C)C`, the AC50 is reported as 31 µM (active). With `Cc1cc(C(=O)CSc2nc(N)cc(O)n2)c(C)n1-c1cccc(F)c1` the AC50 was 26.2 µM (active). With `CC(C)c1ccc(NC(=O)Nc2nc(C(N)CCc3ccccc3)cs2)cc1` (centres undefined) the AC50 was 10.3 µM (active).

System: not listed separately
Experiment: Shn3 3'UTR reporter inhibitors, dose response, cell-based, Clone20 osteoblasts, firefly luciferase, cherry-picked (AID 624132);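 note: firefly luciferase luminescence from reporter carrying the Shn3 3'UTR in osteoblasts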
Assay type: functional
Conditions: not given
In the case of `c1ccc(CN=C(NCc2ccccc2)NCc2ccccc2)cc1`, the AC50 is reported as 1.79 µM (active). With `CC(C)C[C@@H](CO)N(Cc1ccccc1)S(=O)(=O)N(Cc1ccccc1)[C@@H](CO)CC(C)C` the AC50 was 11.4 µM (active). In the case of `Cc1cc(C(=O)CSc2nc(N)cc(O)n2)c(C)n1-c1cccc(F)c1`, the AC50 is reported as 1.66 µM (active). In the case of `CC(C)c1ccc(NC(=O)Nc2nc(C(N)CCc3ccccc3)cs2)cc1` (centres undefined), the AC50 is reported as 5.36 µM (active).

Molecular target: Cytochrome P450 2C9 (Homo sapiens, UniProt P11712)
Sequence (P11712 whole entry): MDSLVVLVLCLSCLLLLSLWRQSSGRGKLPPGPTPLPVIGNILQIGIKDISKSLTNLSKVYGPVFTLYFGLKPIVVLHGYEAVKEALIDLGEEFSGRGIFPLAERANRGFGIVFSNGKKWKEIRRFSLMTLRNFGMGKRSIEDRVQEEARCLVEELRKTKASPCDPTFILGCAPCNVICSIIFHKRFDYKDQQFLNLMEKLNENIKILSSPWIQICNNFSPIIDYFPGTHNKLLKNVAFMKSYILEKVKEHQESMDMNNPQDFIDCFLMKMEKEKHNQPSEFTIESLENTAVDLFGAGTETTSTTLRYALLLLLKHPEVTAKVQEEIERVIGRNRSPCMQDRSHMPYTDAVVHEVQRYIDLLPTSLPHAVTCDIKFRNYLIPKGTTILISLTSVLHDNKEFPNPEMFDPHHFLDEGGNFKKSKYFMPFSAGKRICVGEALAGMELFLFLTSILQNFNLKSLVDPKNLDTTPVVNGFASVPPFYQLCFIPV
Experiment: not given
Conditions: not given
For `O=C1Nc2cc(Cl)c(Cl)cc2N(O)N1c1ccc(Cl)c(Cl)c1`, the AC50 was 3.98 µM (inconclusive).

Molecular target: Cytochrome P450 2C19 (Homo sapiens, UniProt P33261)
Sequence (P33261 whole entry): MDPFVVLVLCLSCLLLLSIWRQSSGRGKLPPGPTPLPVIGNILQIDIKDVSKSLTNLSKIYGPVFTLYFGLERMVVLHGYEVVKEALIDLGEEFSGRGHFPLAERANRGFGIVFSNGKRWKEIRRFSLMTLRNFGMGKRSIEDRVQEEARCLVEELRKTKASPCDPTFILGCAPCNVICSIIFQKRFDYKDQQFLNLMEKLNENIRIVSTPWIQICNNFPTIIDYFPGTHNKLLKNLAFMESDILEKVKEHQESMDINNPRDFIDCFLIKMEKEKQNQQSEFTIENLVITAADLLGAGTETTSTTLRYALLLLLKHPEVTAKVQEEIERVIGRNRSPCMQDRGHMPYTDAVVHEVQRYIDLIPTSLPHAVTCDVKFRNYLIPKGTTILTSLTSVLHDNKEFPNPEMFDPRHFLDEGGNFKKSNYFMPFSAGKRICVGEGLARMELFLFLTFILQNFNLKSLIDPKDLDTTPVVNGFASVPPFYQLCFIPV
Experiment: Cytochrome panel assay with activity outcomes. Panel member name: p450-cyp2c19 Compounds with AC50 equal or less than 10 uM are considered active
Assay type: functional
Conditions: read-out: AC50
In the case of `O=C1Nc2cc(Cl)c(Cl)cc2N(O)N1c1ccc(Cl)c(Cl)c1`, the AC50 is reported as 28.2 µM (inconclusive).

Molecular target: Cytochrome P450 3A4 (Homo sapiens, UniProt P08684);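 note: CYP3A4 tested as one member of a cytochrome P450 panel screen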
Sequence (P08684 whole entry): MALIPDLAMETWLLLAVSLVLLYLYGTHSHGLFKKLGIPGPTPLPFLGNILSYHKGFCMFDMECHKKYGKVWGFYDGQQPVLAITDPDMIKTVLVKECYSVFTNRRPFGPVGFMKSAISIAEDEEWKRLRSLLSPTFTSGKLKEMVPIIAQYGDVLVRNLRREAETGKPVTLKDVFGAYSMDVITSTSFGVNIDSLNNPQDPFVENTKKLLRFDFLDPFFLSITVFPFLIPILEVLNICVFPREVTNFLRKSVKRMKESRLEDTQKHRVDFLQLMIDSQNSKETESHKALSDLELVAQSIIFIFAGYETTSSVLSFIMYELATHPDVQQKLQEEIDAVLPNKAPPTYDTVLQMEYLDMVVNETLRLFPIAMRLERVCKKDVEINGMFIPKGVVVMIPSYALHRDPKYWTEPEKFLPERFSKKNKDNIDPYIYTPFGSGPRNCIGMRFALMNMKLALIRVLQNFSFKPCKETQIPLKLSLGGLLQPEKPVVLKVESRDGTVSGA
Experiment: not given
Conditions: not given
With `O=C1Nc2cc(Cl)c(Cl)cc2N(O)N1c1ccc(Cl)c(Cl)c1` the AC50 was 39.8 µM (inconclusive).

System: not listed separately
Experiment: Luminescence Cell-Based Dose Retest to Confirm Inhibitors of Cancer Stem Cells. [Related pubchem assays (depositor defined):AID2717, AID2721]
Assay type: functional
Conditions: Homo sapiens
With `CC(C)c1ccc2c(c1)c(SC(C)(C)C)c(CC(C)(C)C(=O)O)n2Cc1ccc(Cl)cc1` the AC50 was 1.58 µM (active). With `CC(C)C[C@@H](CO)N(Cc1ccccc1)S(=O)(=O)N(Cc1ccccc1)[C@@H](CO)CC(C)C` the AC50 was 4.21 µM (active).
